# Test results taken from ChEMBL document CHEMBL1201862, “PubChem BioAssay data set” (2004).
#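 Where inhibition never reached the appropriate level, the endpoint shown equals the highest concentration tested. Otherwise, values were interpolated linearly from a five-concentration, 48-hour dose response in 96-well plates. Abbreviation: GI50, concentration required for 50% inhibition of growth.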 Calls of active or inactive are those of the source. Rule as the data show it: active = GI50 up to about 1.1 µM and inactive = higher.
# Columns and labels:
# Test in all cases: inhibition of tumour cell growth, NCI panel, 48 h
# HCT-116 = test system: HCT-116
# SF-268 = test system: SF-268
# A498 = test system: A498
# NCI/ADR-RES = test system: NCI/ADR-RES
# U-251 = test system: U-251
# OVCAR-5 = test system: OVCAR-5
# M14 = test system: M14
# SK-MEL-28 = test system: SK-MEL-28
# HCT-15 = test system: HCT-15
# LXFL 529 = test system: LXFL 529
# Malme-3M = test system: Malme-3M
# HCC 2998 = test system: HCC 2998
# TK-10 = test system: TK-10
# LOX IMVI = test system: LOX IMVI
# DU-145 = test system: DU-145
# DLD-1 = test system: DLD-1
# Hs-578T = test system: Hs-578T
# RPMI-8226 = test system: RPMI-8226
# MCF7 = test system: MCF7
# KM12 = test system: KM12
# MDA-MB-231 = test system: MDA-MB-231
# A549 = test system: A549
# EKVX = test system: EKVX
# HOP-92 = test system: HOP-92
# MOLT-4 = test system: MOLT-4
# BT-549 = test system: BT-549
# SR = test system: SR
# NCI-H460 = test system: NCI-H460
# SK-MEL-2 = test system: SK-MEL-2
# UACC-257 = test system: UACC-257
# 786-0 = test system: 786-0
# SK-OV-3 = test system: SK-OV-3
# NCI-H226 = test system: NCI-H226
# UACC-62 = test system: UACC-62
# XF498 = test system: XF498
# RXF 393 = test system: RXF 393
# HT-29 = test system: HT-29
# SK-MEL-5 = test system: SK-MEL-5
# ACHN = test system: ACHN
# MDA-N = test system: MDA-N
# M19-MEL = test system: M19-MEL
# SF-539 = test system: SF-539
# CAKI-1 = test system: CAKI-1
# COLO 205 = test system: COLO 205
# HOP-62 = test system: HOP-62
# HL-60 = test system: HL-60
# SNB-75 = test system: SNB-75
# NCI-H522 = test system: NCI-H522
# DMS-114 = test system: DMS-114
# OVCAR-8 = test system: OVCAR-8
# OVCAR-3 = test system: OVCAR-3
# T47D = test system: T47D
# SW-620 = test system: SW-620
# MDA-MB-435 = test system: MDA-MB-435
# CCRF-CEM = test system: CCRF-CEM
# KM-20L2 = test system: KM-20L2
# SN12C = test system: SN12C
# SNB-19 = test system: SNB-19
# RXF 631 = test system: RXF 631
# OVCAR-4 = test system: OVCAR-4
# NCI-H23 = test system: NCI-H23
# SF-295 = test system: SF-295
# PC-3 = test system: PC-3
# SNB-78 = test system: SNB-78
# K562 = test system: K562
# IGROV-1 = test system: IGROV-1
# UO-31 = test system: UO-31
# DMS-273 = test system: DMS-273
smiles,measurement,setting,value
Nc1ccc(C(=O)N/C(=C\c2cccc([N+](=O)[O-])c2)c2nc3c(O)nc(S)nc3[nH]2)cc1,GI50,HCT-116,81.3 µM (inactive)
same,GI50,SF-268,25.9 µM (inactive)
same,GI50,A498,65.8 µM (inactive)
same,GI50,NCI/ADR-RES,> 100 µM (inactive)
same,GI50,U-251,42.7 µM (inactive)
same,GI50,OVCAR-5,> 100 µM (inactive)
same,GI50,M14,> 100 µM (inactive)
same,GI50,SK-MEL-28,> 100 µM (inactive)
same,GI50,HCT-15,> 100 µM
same,GI50,LXFL 529,> 57.7 µM (inactive)
same,GI50,Malme-3M,> 100 µM (inactive)
same,GI50,HCC 2998,> 100 µM (inactive)
same,GI50,TK-10,> 79.4 µM (inactive)
same,GI50,LOX IMVI,> 92.7 µM (inactive)
same,GI50,DU-145,> 100 µM (inactive)
same,GI50,DLD-1,> 100 µM (inactive)
same,GI50,Hs-578T,29.9 µM (inactive)
same,GI50,RPMI-8226,> 100 µM (inactive)
same,GI50,MCF7,> 93.8 µM (inactive)
same,GI50,KM12,> 100 µM (inactive)
same,GI50,MDA-MB-231,> 53 µM (inactive)
same,GI50,A549,74.3 µM (inactive)
same,GI50,EKVX,> 84.9 µM (inactive)
same,GI50,HOP-92,20.9 µM (inactive)
same,GI50,MOLT-4,> 56.2 µM (inactive)
same,GI50,BT-549,> 100 µM (inactive)
same,GI50,SR,> 100 µM (inactive)
same,GI50,NCI-H460,> 100 µM (inactive)
same,GI50,SK-MEL-2,53.7 µM (inactive)
same,GI50,UACC-257,> 100 µM (inactive)
same,GI50,786-0,24.5 µM (inactive)
same,GI50,SK-OV-3,22.8 µM (inactive)
same,GI50,NCI-H226,> 51.8 µM (inactive)
same,GI50,UACC-62,41.9 µM (inactive)
same,GI50,XF498,16.9 µM (inactive)
same,GI50,RXF 393,27.4 µM (inactive)
same,GI50,HT-29,> 100 µM (inactive)
same,GI50,SK-MEL-5,> 100 µM (inactive)
same,GI50,ACHN,> 76.2 µM (inactive)
same,GI50,MDA-N,> 100 µM (inactive)
same,GI50,M19-MEL,> 100 µM (inactive)
same,GI50,SF-539,18.5 µM (inactive)
same,GI50,CAKI-1,> 100 µM (inactive)
same,GI50,COLO 205,> 100 µM (inactive)
same,GI50,HOP-62,17.2 µM (inactive)
same,GI50,HL-60,> 100 µM (inactive)
same,GI50,SNB-75,6.61 µM (inactive)
same,GI50,NCI-H522,> 100 µM (inactive)
same,GI50,DMS-114,> 86.3 µM (inactive)
same,GI50,OVCAR-8,31 µM (inactive)
same,GI50,OVCAR-3,> 100 µM (inactive)
same,GI50,T47D,44.2 µM (inactive)
same,GI50,SW-620,> 100 µM (inactive)
same,GI50,MDA-MB-435,> 100 µM (inactive)
same,GI50,CCRF-CEM,> 100 µM (inactive)
same,GI50,KM-20L2,> 100 µM (inactive)
same,GI50,SN12C,> 88.7 µM (inactive)
same,GI50,SNB-19,42 µM (inactive)
same,GI50,RXF 631,37.2 µM (inactive)
same,GI50,OVCAR-4,> 100 µM (inactive)
same,GI50,NCI-H23,> 100 µM (inactive)
same,GI50,SF-295,37.3 µM (inactive)
same,GI50,PC-3,> 100 µM (inactive)
same,GI50,SNB-78,39.3 µM (inactive)
same,GI50,K562,> 100 µM (inactive)
same,GI50,IGROV-1,55.1 µM (inactive)
same,GI50,UO-31,30.3 µM (inactive)
CCOC(=O)Oc1cc2c(c(OC)c1OC)-c1ccc(OC)c(=O)cc1C(NC(C)=O)CC2 (stereo not drawn),GI50,HCT-116,0.0149 µM (active)
same,GI50,SF-268,0.0197 µM (active)
same,GI50,A498,0.0541 µM (active)
same,GI50,NCI/ADR-RES,9.33 µM (inactive)
same,GI50,U-251,0.0212 µM (active)
same,GI50,OVCAR-5,2.26 µM (inactive)
same,GI50,M14,0.0218 µM (active)
same,GI50,SK-MEL-28,< 0.215 µM (active)
same,GI50,HCT-15,0.252 µM
same,GI50,LXFL 529,< 0.0162 µM (active)
same,GI50,Malme-3M,< 0.015 µM (active)
same,GI50,HCC 2998,0.0176 µM (active)
same,GI50,TK-10,3.78 µM (inactive)
same,GI50,LOX IMVI,0.0153 µM (active)
same,GI50,DU-145,0.1 µM (active)
same,GI50,Hs-578T,0.0619 µM (active)
same,GI50,RPMI-8226,0.0141 µM (active)
same,GI50,MCF7,< 0.01 µM (active)
same,GI50,KM12,0.0172 µM (active)
same,GI50,MDA-MB-231,0.0281 µM (active)
same,GI50,DMS-273,< 0.01 µM (active)
same,GI50,A549,0.168 µM (active)
same,GI50,EKVX,19.1 µM (inactive)
same,GI50,HOP-92,0.0968 µM (active)
same,GI50,MOLT-4,0.0179 µM (active)
same,GI50,SR,< 0.01 µM (active)
same,GI50,NCI-H460,0.0468 µM (active)
same,GI50,SK-MEL-2,0.0123 µM (active)
same,GI50,UACC-257,0.0146 µM (active)
same,GI50,786-0,0.0345 µM (active)
same,GI50,SK-OV-3,0.114 µM (active)
same,GI50,NCI-H226,0.183 µM (active)
same,GI50,UACC-62,0.0156 µM (active)
same,GI50,XF498,0.0432 µM (active)
same,GI50,RXF 393,< 0.0137 µM (active)
same,GI50,HT-29,0.0187 µM (active)
same,GI50,SK-MEL-5,0.0116 µM (active)
same,GI50,ACHN,0.398 µM (active)
same,GI50,MDA-N,< 0.01 µM (active)
same,GI50,M19-MEL,< 0.0164 µM (active)
same,GI50,SF-539,0.0138 µM (active)
same,GI50,CAKI-1,0.239 µM (active)
same,GI50,COLO 205,0.0185 µM (active)
same,GI50,HOP-62,0.0509 µM (active)
same,GI50,HL-60,< 0.0118 µM (active)
same,GI50,SNB-75,0.0119 µM (active)
same,GI50,NCI-H522,0.014 µM (active)
same,GI50,DMS-114,0.0137 µM (active)
same,GI50,OVCAR-8,0.0286 µM (active)
same,GI50,OVCAR-3,0.0166 µM (active)
same,GI50,T47D,> 100 µM (inactive)
same,GI50,SW-620,< 0.0122 µM (active)
same,GI50,MDA-MB-435,< 0.01 µM (active)
same,GI50,CCRF-CEM,< 0.0122 µM (active)
same,GI50,KM-20L2,0.0416 µM (active)
same,GI50,SN12C,0.034 µM (active)
same,GI50,SNB-19,0.0277 µM (active)
same,GI50,RXF 631,0.0565 µM (active)
same,GI50,OVCAR-4,11.2 µM (inactive)
same,GI50,NCI-H23,0.0187 µM (active)
same,GI50,SF-295,0.0574 µM (active)
same,GI50,PC-3,0.0278 µM (active)
same,GI50,SNB-78,0.0156 µM (active)
same,GI50,K562,0.0138 µM (active)
same,GI50,IGROV-1,0.0208 µM (active)
same,GI50,UO-31,5.35 µM (inactive)
